{"source": "the NIST ThermoML archive (doi:10.1016/j.jct.2007.07.005)", "settings": "Fluid (supercritical or subcritical phases), vibrating tube", "note": "± gives the expanded uncertainty stated by the source."}
{"molecule": "CCCCCO", "note": "[pentan-1-ol]", "values": [{"measurement": "mass density", "setting": "312.96 K, 512 kPa", "value": "799.65 ± 0.43", "unit": "kg/m3"}, {"measurement": "mass density", "setting": "312.96 K, 1022 kPa", "value": "800.04 ± 0.43", "unit": "kg/m3"}, {"measurement": "mass density", "setting": "312.96 K, 1998 kPa", "value": "800.77 ± 0.44", "unit": "kg/m3"}, {"measurement": "mass density", "setting": "312.96 K, 3005 kPa", "value": "801.53 ± 0.44", "unit": "kg/m3"}, {"measurement": "mass density", "setting": "312.96 K, 4003 kPa", "value": "802.28 ± 0.44", "unit": "kg/m3"}, {"measurement": "mass density", "setting": "312.96 K, 5002 kPa", "value": "803.02 ± 0.44", "unit": "kg/m3"}, {"measurement": "mass density", "setting": "312.96 K, 6018 kPa", "value": "803.76 ± 0.44", "unit": "kg/m3"}, {"measurement": "mass density", "setting": "312.96 K, 6994 kPa", "value": "804.49 ± 0.44", "unit": "kg/m3"}, {"measurement": "mass density", "setting": "312.96 K, 8008 kPa", "value": "805.21 ± 0.44", "unit": "kg/m3"}, {"measurement": "mass density", "setting": "312.96 K, 9005 kPa", "value": "805.93 ± 0.44", "unit": "kg/m3"}, {"measurement": "mass density", "setting": "312.96 K, 10008 kPa", "value": "806.66 ± 0.44", "unit": "kg/m3"}, {"measurement": "mass density", "setting": "312.96 K, 11008 kPa", "value": "807.37 ± 0.44", "unit": "kg/m3"}, {"measurement": "mass density", "setting": "312.96 K, 12000 kPa", "value": "808.07 ± 0.44", "unit": "kg/m3"}, {"measurement": "mass density", "setting": "312.96 K, 13024 kPa", "value": "808.78 ± 0.44", "unit": "kg/m3"}, {"measurement": "mass density", "setting": "312.96 K, 13987 kPa", "value": "809.45 ± 0.44", "unit": "kg/m3"}, {"measurement": "mass density", "setting": "312.96 K, 15014 kPa", "value": "810.14 ± 0.45", "unit": "kg/m3"}, {"measurement": "mass density", "setting": "312.96 K, 15991 kPa", "value": "810.8 ± 0.45", "unit": "kg/m3"}, {"measurement": "mass density", "setting": "312.96 K, 17019 kPa", "value": "811.48 ± 0.45", "unit": "kg/m3"}, {"measurement": "mass density", "setting": "312.96 K, 17991 kPa", "value": "812.12 ± 0.45", "unit": "kg/m3"}, {"measurement": "mass density", "setting": "312.96 K, 19007 kPa", "value": "812.79 ± 0.45", "unit": "kg/m3"}, {"measurement": "mass density", "setting": "312.96 K, 19992 kPa", "value": "813.44 ± 0.45", "unit": "kg/m3"}, {"measurement": "mass density", "setting": "312.96 K, 21031 kPa", "value": "814.1 ± 0.45", "unit": "kg/m3"}, {"measurement": "mass density", "setting": "312.96 K, 22041 kPa", "value": "814.76 ± 0.45", "unit": "kg/m3"}, {"measurement": "mass density", "setting": "312.96 K, 23014 kPa", "value": "815.41 ± 0.45", "unit": "kg/m3"}, {"measurement": "mass density", "setting": "312.96 K, 24003 kPa", "value": "816.04 ± 0.45", "unit": "kg/m3"}, {"measurement": "mass density", "setting": "312.96 K, 25037 kPa", "value": "816.73 ± 0.45", "unit": "kg/m3"}, {"measurement": "mass density", "setting": "322.89 K, 520 kPa", "value": "792.06 ± 0.43", "unit": "kg/m3"}, {"measurement": "mass density", "setting": "322.89 K, 1010 kPa", "value": "792.47 ± 0.43", "unit": "kg/m3"}, {"measurement": "mass density", "setting": "322.89 K, 2005 kPa", "value": "793.27 ± 0.43", "unit": "kg/m3"}, {"measurement": "mass density", "setting": "322.89 K, 3007 kPa", "value": "794.07 ± 0.44", "unit": "kg/m3"}, {"measurement": "mass density", "setting": "322.89 K, 4005 kPa", "value": "794.86 ± 0.44", "unit": "kg/m3"}, {"measurement": "mass density", "setting": "322.89 K, 5018 kPa", "value": "795.63 ± 0.44", "unit": "kg/m3"}, {"measurement": "mass density", "setting": "322.89 K, 6001 kPa", "value": "796.42 ± 0.44", "unit": "kg/m3"}, {"measurement": "mass density", "setting": "322.89 K, 7016 kPa", "value": "797.2 ± 0.44", "unit": "kg/m3"}, {"measurement": "mass density", "setting": "322.89 K, 8020 kPa", "value": "797.97 ± 0.44", "unit": "kg/m3"}, {"measurement": "mass density", "setting": "322.89 K, 8997 kPa", "value": "798.71 ± 0.44", "unit": "kg/m3"}, {"measurement": "mass density", "setting": "322.89 K, 10001 kPa", "value": "799.47 ± 0.44", "unit": "kg/m3"}, {"measurement": "mass density", "setting": "322.89 K, 11005 kPa", "value": "800.21 ± 0.44", "unit": "kg/m3"}, {"measurement": "mass density", "setting": "322.89 K, 11996 kPa", "value": "800.95 ± 0.44", "unit": "kg/m3"}, {"measurement": "mass density", "setting": "322.89 K, 13002 kPa", "value": "801.68 ± 0.44", "unit": "kg/m3"}, {"measurement": "mass density", "setting": "322.89 K, 14013 kPa", "value": "802.4 ± 0.44", "unit": "kg/m3"}, {"measurement": "mass density", "setting": "322.89 K, 15005 kPa", "value": "803.11 ± 0.44", "unit": "kg/m3"}, {"measurement": "mass density", "setting": "322.89 K, 16014 kPa", "value": "803.82 ± 0.45", "unit": "kg/m3"}, {"measurement": "mass density", "setting": "322.89 K, 17001 kPa", "value": "804.51 ± 0.45", "unit": "kg/m3"}, {"measurement": "mass density", "setting": "322.89 K, 18016 kPa", "value": "805.21 ± 0.45", "unit": "kg/m3"}, {"measurement": "mass density", "setting": "322.89 K, 19012 kPa", "value": "805.89 ± 0.45", "unit": "kg/m3"}, {"measurement": "mass density", "setting": "322.89 K, 19992 kPa", "value": "806.56 ± 0.45", "unit": "kg/m3"}, {"measurement": "mass density", "setting": "322.89 K, 21036 kPa", "value": "807.26 ± 0.45", "unit": "kg/m3"}, {"measurement": "mass density", "setting": "322.89 K, 22003 kPa", "value": "807.92 ± 0.45", "unit": "kg/m3"}, {"measurement": "mass density", "setting": "322.89 K, 23024 kPa", "value": "808.61 ± 0.45", "unit": "kg/m3"}, {"measurement": "mass density", "setting": "322.89 K, 23994 kPa", "value": "809.26 ± 0.45", "unit": "kg/m3"}, {"measurement": "mass density", "setting": "322.89 K, 25023 kPa", "value": "810 ± 0.45", "unit": "kg/m3"}, {"measurement": "mass density", "setting": "332.79 K, 493 kPa", "value": "784.29 ± 0.43", "unit": "kg/m3"}, {"measurement": "mass density", "setting": "332.79 K, 1014 kPa", "value": "784.76 ± 0.43", "unit": "kg/m3"}, {"measurement": "mass density", "setting": "332.79 K, 2006 kPa", "value": "785.61 ± 0.43", "unit": "kg/m3"}, {"measurement": "mass density", "setting": "332.79 K, 3025 kPa", "value": "786.48 ± 0.43", "unit": "kg/m3"}, {"measurement": "mass density", "setting": "332.79 K, 4011 kPa", "value": "787.28 ± 0.44", "unit": "kg/m3"}, {"measurement": "mass density", "setting": "332.79 K, 5020 kPa", "value": "788.11 ± 0.44", "unit": "kg/m3"}, {"measurement": "mass density", "setting": "332.79 K, 6003 kPa", "value": "788.91 ± 0.44", "unit": "kg/m3"}, {"measurement": "mass density", "setting": "332.79 K, 6997 kPa", "value": "789.73 ± 0.44", "unit": "kg/m3"}, {"measurement": "mass density", "setting": "332.79 K, 8009 kPa", "value": "790.54 ± 0.44", "unit": "kg/m3"}, {"measurement": "mass density", "setting": "332.79 K, 8995 kPa", "value": "791.31 ± 0.44", "unit": "kg/m3"}, {"measurement": "mass density", "setting": "332.79 K, 9996 kPa", "value": "792.12 ± 0.44", "unit": "kg/m3"}, {"measurement": "mass density", "setting": "332.79 K, 11018 kPa", "value": "792.9 ± 0.44", "unit": "kg/m3"}, {"measurement": "mass density", "setting": "332.79 K, 11995 kPa", "value": "793.66 ± 0.44", "unit": "kg/m3"}, {"measurement": "mass density", "setting": "332.79 K, 13023 kPa", "value": "794.45 ± 0.44", "unit": "kg/m3"}, {"measurement": "mass density", "setting": "332.79 K, 13999 kPa", "value": "795.19 ± 0.44", "unit": "kg/m3"}, {"measurement": "mass density", "setting": "332.79 K, 15010 kPa", "value": "795.95 ± 0.44", "unit": "kg/m3"}, {"measurement": "mass density", "setting": "332.79 K, 16028 kPa", "value": "796.68 ± 0.44", "unit": "kg/m3"}, {"measurement": "mass density", "setting": "332.79 K, 17003 kPa", "value": "797.41 ± 0.45", "unit": "kg/m3"}, {"measurement": "mass density", "setting": "332.79 K, 18040 kPa", "value": "798.14 ± 0.45", "unit": "kg/m3"}, {"measurement": "mass density", "setting": "332.79 K, 19004 kPa", "value": "798.84 ± 0.45", "unit": "kg/m3"}, {"measurement": "mass density", "setting": "332.79 K, 20035 kPa", "value": "799.59 ± 0.45", "unit": "kg/m3"}, {"measurement": "mass density", "setting": "332.79 K, 21024 kPa", "value": "800.29 ± 0.45", "unit": "kg/m3"}, {"measurement": "mass density", "setting": "332.79 K, 21993 kPa", "value": "800.97 ± 0.45", "unit": "kg/m3"}, {"measurement": "mass density", "setting": "332.79 K, 23039 kPa", "value": "801.71 ± 0.45", "unit": "kg/m3"}, {"measurement": "mass density", "setting": "332.79 K, 24015 kPa", "value": "802.4 ± 0.45", "unit": "kg/m3"}, {"measurement": "mass density", "setting": "332.79 K, 25022 kPa", "value": "803.12 ± 0.45", "unit": "kg/m3"}]}
